{
  "source": "patent US11466020B2",
  "about": "“Compounds and compositions for inhibition and elimination of Zika infection and uses for same” (Cornell University, priority 2017, dated 2022)",
  "key": {"ZIKV MR766 virus strain": {"test_system": "ZIKV MR766 virus strain", "assay": "Prophylactic treatment of ZIKV infected SCID-Beige mice", "assay_type": "in vivo", "details": "AQ-treated ZIKV infected mice"}, "[1]": {"test_system": "human forebrain organoids", "assay": "Forebrain organoid proliferation, apoptosis, size and structure after ZIKV infection", "assay_type": "cell-based", "from_the_text": "Scale bars, 100 μm. […] Scale bars, 100 μm. […] Scale bars, 50 μm.\nMedium was changed every other day."}, "ZIKV (FSS13025 strain)": {"test_system": "ZIKV (FSS13025 strain)", "assay": "Therapeutic treatment of ZIKV (FSS13025 strain) infected SCID-beige mice", "assay_type": "in vivo", "details": "HH 100 mg/kg/day subcutaneously for 7 days from day 7 post-infection", "method": "(A) Scheme of prophylactic treatment of HH in vivo. HH was administrated to SCID-Beige mice 12 h before infection with MR766 virus strain. HH was injected at a dose of 100 mg/kg/day subcutaneously and euthanized at day 7. (B) qRT-PCR analysis of total ZIKV vRNA in liver, spleen, kidney and brain of ZIKV infected mice. n=12 for liver, spleen and kidney and 20 for brain. (C) qRT-PCR analysis of total ZIKV vRNA in brains of ZIKV-infected mice treated with vehicle (n=14) or HH (n=8). […] (D-F) Immunohistochemical analysis of adult cortex. […] HH prevents infection in all cortical cells. Scale bar=100 μm in (D) and 10 μm in (E, F). (G-I) Immunohistochemical analysis of adult hippocampus. […] HH inhibits infection of all cells in the hippocampus. […] The mice were then euthanized and RNA from brains was analyzed using qRT-PCR. […] The mice were euthanized after 7 days treatment and RNA from brains was analyzed using qRT-PCR. (W, X) qRT-PCR analysis of total vRNA (W) and (−) strand RNA (X) in the brains of mice treated with vehicle (n=8) or HH (n=11) at day 7 post-infection. p values were calculated by one-way repeated measures ANOVA or two-way repeated measures ANOVA with a Bonferroni test for multiple comparisons. *p<0.05, **p<0.01 and ***p<0.001.\nTo evaluate the therapeutic potential of HH, we first monitored the kinetics of ZIKV infection (MR766 strain) in the adult mouse brain. […]"}},
  "note": "Structures can show the parent of a compound that is named as a salt.",
  "data": [
    {"smiles": "CCN(CC)Cc1cc(Nc2ccnc3cc(Cl)ccc23)ccc1O", "note": "[AQ, amodiaquine dihydrochloride dihydrate]", "values": [
      {"measurement": "ZIKV infection of adult cortex (immunohistochemistry)", "setting": "ZIKV MR766 virus strain", "result": "suppresses infection in adult cortex"},
      {"measurement": "ZIKV infection of adult hippocampus (immunohistochemistry)", "setting": "ZIKV MR766 virus strain", "result": "suppresses infection in adult hippocampus"},
      {"measurement": "ZIKV infection of adult striatum (immunohistochemistry)", "setting": "ZIKV MR766 virus strain", "result": "suppresses infection in adult striatum"}
    ]},
    {"smiles": "CN1CCC2=C[C@H](O)[C@H]3OC(=O)c4cc5c(cc4[C@H]3[C@@H]21)OCO5", "note": "[HH, hippeastrine hydrobromide]", "values": [
      {"measurement": "ZIKV-associated proliferation (Ki67+) and apoptosis (CAS3+) defects in D20 organoids", "setting": "[1]; 25 μM HH for 3 days", "result": "completely rescued"},
      {"measurement": "ZIKV-induced structural defects in long-term organoid cultures", "setting": "[1]; 25 μM HH, D20+18", "result": "successfully rescued"},
      {"measurement": "cross-sectional area of ZIKV infected organoids at D20+18", "setting": "[1]; 25 μM HH, mock 1.6, ZIKV 0.4", "result": 1.4, "unit": "mm^2"},
      {"measurement": "neurotoxicity in forebrain organoids", "setting": "[1]; HH compared with AQ", "result": "did not exhibit similar neurotoxicity as AQ"},
      {"measurement": "total and replication (-) strand vRNA in mouse brain", "setting": "ZIKV (FSS13025 strain)", "result": "significantly decreased"}
    ]}
  ]
}
